Experimental data taken from patent publication US6552080B1, “Fungicidal compounds having a fluorovinyl-or fluoropropenyl-oxyphenyloxime moiety and process for the preparation thereof” (Korea Research Institute of Chemical Technology, priority 1999, dated 2003).
Where two headings read alike, the source gives them in different places.

Assays:
Botrytis cinerae = experiment: Fungicidal activity against Cucumber Gray Mold Rot (CGM) disease; format: in vivo; conditions: for CGM (Fungicidal Activities, C.V.): Cucumber Gray Mold Rot, concentration 50 ppm
Puccinia recondita = experiment: Fungicidal activity against Wheat Leaf Rust (WLR) disease; format: in vivo; conditions: for WLR (Fungicidal Activities, C.V.): Wheat Leaf Rust
[1] = tested on: Pyricularia oryzae Carvara KA301; format: in vivo; conditions: for RCV (Fungicidal Activities, C.V.): Rice Blast
Erysiphae graminis = experiment: Fungicidal activity against Barley Powdery Mildew (BPM) disease; format: in vivo; conditions: for BPM (Fungicidal Activities, C.V.): Barley Powdery Mildew
Rhizoctonia solani AG-1 = experiment: Fungicidal activity against Rice Sheath Blight (RSB) disease; conditions: for RSB (Fungicidal Activities, C.V.): Rice Sheath Blight
Phytophthora infestans = format: in vivo; conditions: for TLB (Fungicidal Activities, C.V.): Tomato Late Blight

With `CON=C(C(=O)OC)c1ccccc1CON=Cc1cccc(OC(F)=Cc2ccc(C)cc2)c1` [Compound 25] the “CGM (Fungicidal Activities, C.V.)” value (Botrytis cinerae) was 9%, the “WLR (Fungicidal Activities, C.V.)” value (Puccinia recondita; concentration 2 ppm) was 95% and the “WLR (Fungicidal Activities, C.V.)” value (Puccinia recondita; concentration 50 ppm) was 100%. The “RCV (Fungicidal Activities, C.V.)” value ([1]; concentration 2 ppm) was 66%, the “RCV (Fungicidal Activities, C.V.)” value ([1]; concentration 50 ppm) was 98% and the “BPM (Fungicidal Activities, C.V.)” value (Erysiphae graminis; concentration 2 ppm) was 93%. For the same molecule, the “BPM (Fungicidal Activities, C.V.)” value (Erysiphae graminis; concentration 50 ppm) was 100%, the “RSB (Fungicidal Activities, C.V.)” value (Rhizoctonia solani AG-1; concentration 2 ppm) was 15% and the “RSB (Fungicidal Activities, C.V.)” value (Rhizoctonia solani AG-1; concentration 50 ppm) was 40%. The “TLB (Fungicidal Activities, C.V.)” value (Phytophthora infestans; concentration 2 ppm) was 75% and the “TLB (Fungicidal Activities, C.V.)” value (Phytophthora infestans; concentration 50 ppm) was 99%.
For `CON=C(C(=O)OC)c1ccccc1CON=Cc1cccc(OC(F)=Cc2ccc(F)cc2)c1` [Compound 27], the “CGM (Fungicidal Activities, C.V.)” value (Botrytis cinerae) was 0%, the “WLR (Fungicidal Activities, C.V.)” value (Puccinia recondita; concentration 50 ppm) was 86% and the “RCV (Fungicidal Activities, C.V.)” value ([1]; concentration 50 ppm) was 100%. The “BPM (Fungicidal Activities, C.V.)” value (Erysiphae graminis; concentration 50 ppm) was 91%, the “RSB (Fungicidal Activities, C.V.)” value (Rhizoctonia solani AG-1; concentration 50 ppm) was 25% and the “TLB (Fungicidal Activities, C.V.)” value (Phytophthora infestans; concentration 50 ppm) was 69%.
`CON=C(C(=O)OC)c1ccccc1CON=C(C)c1cccc(OC(F)=C(c2cccc(Cl)c2)C(F)(F)F)c1` [Compound 184] was tested, and the “Fungicidal Activities CGM (C.V.)” value (Botrytis cinerae; 50 ppm) was 0%, the “Fungicidal Activities WLR (C.V.)” value (Puccinia recondita; 2 ppm) was 98% and the “Fungicidal Activities WLR (C.V.)” value (Puccinia recondita; 50 ppm) was 99%. For the same molecule, the “Fungicidal Activities RCV (C.V.)” value ([1]; 2 ppm) was 90%, the “Fungicidal Activities RCV (C.V.)” value ([1]; 50 ppm) was 96% and the “Fungicidal Activities BPM (C.V.)” value (Erysiphae graminis; 2 ppm) was 99%. For the same molecule, the “Fungicidal Activities BPM (C.V.)” value (Erysiphae graminis; 50 ppm) was 100%, the “Fungicidal Activities RSB (C.V.)” value (Rhizoctonia solani AG-1; 2 ppm) was 20% and the “Fungicidal Activities RSB (C.V.)” value (Rhizoctonia solani AG-1; 50 ppm) was 85%. For the same molecule, the “Fungicidal Activities TLB (C.V.)” value (Phytophthora infestans; 2 ppm) was 0% and the “Fungicidal Activities TLB (C.V.)” value (Phytophthora infestans; 50 ppm) was 50%.
`COC=C(C(=O)OC)c1ccccc1CON=Cc1cccc(OC(F)=Cc2cccc(C)c2)c1` [Compound 2] was tested, and the “CGM (Fungicidal Activities, C.V.)” value (Botrytis cinerae) was 17%, the “WLR (Fungicidal Activities, C.V.)” value (Puccinia recondita; concentration 2 ppm) was 97% and the “WLR (Fungicidal Activities, C.V.)” value (Puccinia recondita; concentration 10 ppm) was 100%. For the same molecule, the “WLR (Fungicidal Activities, C.V.)” value (Puccinia recondita; concentration 50 ppm) was 100%, the “RCV (Fungicidal Activities, C.V.)” value ([1]; concentration 2 ppm) was 33% and the “RCV (Fungicidal Activities, C.V.)” value ([1]; concentration 10 ppm) was 86%. For the same molecule, the “RCV (Fungicidal Activities, C.V.)” value ([1]; concentration 50 ppm) was 93%, the “BPM (Fungicidal Activities, C.V.)” value (Erysiphae graminis; concentration 2 ppm) was 98% and the “BPM (Fungicidal Activities, C.V.)” value (Erysiphae graminis; concentration 10 ppm) was 99%. For the same molecule, the “BPM (Fungicidal Activities, C.V.)” value (Erysiphae graminis; concentration 50 ppm) was 100%, the “RSB (Fungicidal Activities, C.V.)” value (Rhizoctonia solani AG-1; concentration 50 ppm) was 60% and the “TLB (Fungicidal Activities, C.V.)” value (Phytophthora infestans; concentration 50 ppm) was 85%.
`COC=C(C(=O)OC)c1ccccc1CON=C(c1cccc(OC(F)=Cc2ccc3c(c2)OCO3)c1)C(F)(F)F` [Compound 94] was tested, and the “CGM (Fungicidal Activities, C.V.)” value (Botrytis cinerae) was 54%, the “WLR (Fungicidal Activities, C.V.)” value (Puccinia recondita; concentration 2 ppm) was 93% and the “WLR (Fungicidal Activities, C.V.)” value (Puccinia recondita; concentration 10 ppm) was 96%. For the same molecule, the “WLR (Fungicidal Activities, C.V.)” value (Puccinia recondita; concentration 50 ppm) was 100%, the “RCV (Fungicidal Activities, C.V.)” value ([1]; concentration 2 ppm) was 99% and the “RCV (Fungicidal Activities, C.V.)” value ([1]; concentration 10 ppm) was 100%. The “RCV (Fungicidal Activities, C.V.)” value ([1]; concentration 50 ppm) was 100%, the “BPM (Fungicidal Activities, C.V.)” value (Erysiphae graminis; concentration 2 ppm) was 100% and the “BPM (Fungicidal Activities, C.V.)” value (Erysiphae graminis; concentration 10 ppm) was 100%. The “BPM (Fungicidal Activities, C.V.)” value (Erysiphae graminis; concentration 50 ppm) was 100%, the “RSB (Fungicidal Activities, C.V.)” value (Rhizoctonia solani AG-1; concentration 50 ppm) was 60% and the “TLB (Fungicidal Activities, C.V.)” value (Phytophthora infestans; concentration 50 ppm) was 68%.
For `COC=C(C(=O)OC)c1ccccc1CON=C(c1cccc(OC(F)=Cc2ccc(C)cc2)c1)C(F)(F)F` [Compound 85], the “CGM (Fungicidal Activities, C.V.)” value (Botrytis cinerae) was 7%, the “WLR (Fungicidal Activities, C.V.)” value (Puccinia recondita; concentration 10 ppm) was 93% and the “WLR (Fungicidal Activities, C.V.)” value (Puccinia recondita; concentration 50 ppm) was 96%. For the same molecule, the “RCV (Fungicidal Activities, C.V.)” value ([1]; concentration 10 ppm) was 16%, the “RCV (Fungicidal Activities, C.V.)” value ([1]; concentration 50 ppm) was 93% and the “BPM (Fungicidal Activities, C.V.)” value (Erysiphae graminis; concentration 10 ppm) was 92%. The “BPM (Fungicidal Activities, C.V.)” value (Erysiphae graminis; concentration 50 ppm) was 99%, the “RSB (Fungicidal Activities, C.V.)” value (Rhizoctonia solani AG-1; concentration 50 ppm) was 40% and the “TLB (Fungicidal Activities, C.V.)” value (Phytophthora infestans; concentration 50 ppm) was 0%.
In the case of `COC=C(C(=O)OC)c1ccccc1CON=C(C)c1cccc(OC(F)=Cc2cccc(C)c2)c1` [Compound 41], the “CGM (Fungicidal Activities, C.V.)” value (Botrytis cinerae) is reported as 51%, the “WLR (Fungicidal Activities, C.V.)” value (Puccinia recondita; concentration 2 ppm) is reported as 99% and the “WLR (Fungicidal Activities, C.V.)” value (Puccinia recondita; concentration 10 ppm) is reported as 100%. The “WLR (Fungicidal Activities, C.V.)” value (Puccinia recondita; concentration 50 ppm) was 100%, the “RCV (Fungicidal Activities, C.V.)” value ([1]; concentration 2 ppm) was 98% and the “RCV (Fungicidal Activities, C.V.)” value ([1]; concentration 10 ppm) was 100%. The “RCV (Fungicidal Activities, C.V.)” value ([1]; concentration 50 ppm) was 100%, the “BPM (Fungicidal Activities, C.V.)” value (Erysiphae graminis; concentration 2 ppm) was 100% and the “BPM (Fungicidal Activities, C.V.)” value (Erysiphae graminis; concentration 10 ppm) was 100%. For the same molecule, the “BPM (Fungicidal Activities, C.V.)” value (Erysiphae graminis; concentration 50 ppm) was 100%, the “RSB (Fungicidal Activities, C.V.)” value (Rhizoctonia solani AG-1; concentration 2 ppm) was 55% and the “RSB (Fungicidal Activities, C.V.)” value (Rhizoctonia solani AG-1; concentration 10 ppm) was 70%. The “RSB (Fungicidal Activities, C.V.)” value (Rhizoctonia solani AG-1; concentration 50 ppm) was 95%, the “TLB (Fungicidal Activities, C.V.)” value (Phytophthora infestans; concentration 2 ppm) was 6% and the “TLB (Fungicidal Activities, C.V.)” value (Phytophthora infestans; concentration 10 ppm) was 25%. For the same molecule, the “TLB (Fungicidal Activities, C.V.)” value (Phytophthora infestans; concentration 50 ppm) was 96%.
